Consider 23 molecules from patent US9162991B2 (University of Ottawa, priority 2007, dated 2015).

Like-named read-outs stand apart in the source and are kept apart here. A value given as a limit tells only on which side of the number the result lay.

The target in assay [1] is recombinant guinea pig liver TGase (Cavia cutleri (Guinea pig), UniProt P08587). The experiment in a line: biochemical. The class given is biochemical. On the procedure: ENZYME INHIBITION BY COMPOUNDS 14a-c, 14l, 15a, 15d-k, 15m-q, 30a, 30r, 30t, 37a and 38a: For enzymology studies of these compounds, recombinant guinea pig liver TGase was expressed in Escherichia coli and effectively purified (Gillet, S. M. F. G. et al J. N., Prot. Exp. & Purif. 2004, 33, 256).
recombinant guinea pig liver TGase, sequence (P08587 whole entry): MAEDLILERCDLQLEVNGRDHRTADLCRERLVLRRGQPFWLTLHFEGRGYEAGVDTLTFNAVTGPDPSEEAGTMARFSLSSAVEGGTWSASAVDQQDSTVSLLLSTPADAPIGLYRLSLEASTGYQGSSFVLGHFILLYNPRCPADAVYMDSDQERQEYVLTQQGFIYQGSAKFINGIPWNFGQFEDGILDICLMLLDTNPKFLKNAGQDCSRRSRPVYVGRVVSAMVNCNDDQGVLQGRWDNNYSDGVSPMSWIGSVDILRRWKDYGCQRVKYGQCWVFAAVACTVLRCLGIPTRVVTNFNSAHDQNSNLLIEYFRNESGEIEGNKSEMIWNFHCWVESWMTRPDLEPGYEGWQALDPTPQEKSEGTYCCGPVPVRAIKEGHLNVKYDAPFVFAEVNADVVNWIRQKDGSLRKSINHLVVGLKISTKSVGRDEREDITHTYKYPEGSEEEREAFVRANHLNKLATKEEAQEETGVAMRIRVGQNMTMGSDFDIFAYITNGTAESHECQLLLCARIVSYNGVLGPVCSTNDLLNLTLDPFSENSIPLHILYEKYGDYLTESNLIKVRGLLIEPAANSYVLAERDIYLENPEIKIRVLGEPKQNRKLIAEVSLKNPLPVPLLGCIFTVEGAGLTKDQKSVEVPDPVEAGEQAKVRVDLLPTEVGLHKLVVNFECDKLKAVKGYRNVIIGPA
The mode of inhibition was determined for the representative lead compound 14a through non-linear regression of initial rate data to the Michaelis-Menten equation (FIG. 1).
For the ensuing enzymatic tests, recombinant guinea pig liver TGase was expressed in E. Coli and effectively purified.
Kinetic runs were recorded on a Cary 100 BIO UV-Visible spectrophotometer at 405 nm and 25° C., in a buffer composed of 50 mM CaCl2, 50 μM EDTA and 0.1 M MOPS (pH 7.0). All aqueous solutions were prepared using de-ionized water purified from the Millipore BioCell system. […] Factor XIIIa activity was measured using a coupled-enzyme assay (Day, N.; Keillor, J. W. Anal. Biochem. 1999, 274, 141). Factor XIIIa, was added to a final concentration of 0.89 μg/mL to a pH 8.5 solution (0.1 M Tris-HCl, 5 mM CaCl2 and 10 mM DDT) of 0.5 mM β-NADH, 3.3 mM Na-acetyl-L-lysine methyl ester, 10 mM α-ketoglutaric acid sodium salt and 297 μg/mL glutamate dehydrogenase (GDH).

The subject of assay [2] is tissue transglutaminase (TG2). The experiment in a line: Cytochrome c (cytC) promoter/luciferase reporter assay in CHO cells. The format is cell-based, Chinese Hamster. The settings on record: 100 μM, CHO cells incubated 12 hours, luminescence of cell lysate. From the text: IN VITRO STUDIES FOR COMPOUND 15a: A cytochrome c (cytC) promoter/luciferase reporter assay (illustrated in FIG. 6) was used to assess tissue transglutaminase (TG2) activity for compound 15a. In the absence of TG2, transcription factors bind to the cytC promoter region of the luciferase gene, and the level of expressed luciferase is detected from the luminescence of the Chinese Hamster Ovary (CHO) cell lysate (A). The level of effective cytC promoter is sensitive to endogenous TG2 co-expressed in CHO cells. High TG2 expression results in low promoter activity, presumably because the transcription factors that bind to the cytC promoter have Gln-rich sequences that are modified by TG2-mediated hydrolysis or transamidation (B). In the presence of TG2 inhibitors, TG2-induced silencing of the promoter is repressed and luciferase is detected in the lysate once more (C). In this assay, CHO cells are incubated in the presence of the inhibitor compound for 12 hours, after which the luminescence of cell lysate is measured, as an indication of the level of TG2 inhibition.

The next assay deals with human caspase 3 (Homo sapiens (Human), UniProt P42574). The experiment in a line: Caspase 3 activity, release of p-nitroaniline from Ac-Asp-Glu-Val-Asp-pNA. The format is biochemical. From the text:
To examine the enzyme selectivity of this new family of TG2 inhibitors, several representative compounds (14a, 15p, 18a, 28a and 30a) were further tested as inhibitors of related enzymes. For these studies, Factor XIIIa was chosen because it is a member of the family of transglutaminase enzymes and its inhibition in vivo may lead to compromised coagulation and toxicity. Caspase 3 was also chosen because as a cysteine protease, its acyl transfer mechanism is phenomenologically similar to that of TGase. At concentrations approaching the limits of their solubility, most of those compounds had no discernable effect on the activities of either of these enzymes (data not shown). […] This selectivity bodes well for in vivo application.
The subsequent absorbance decrease was followed at 340 nm at 37° C. Caspase 3 activity was measured by monitoring the release of p-nitroaniline (pNA) (λabs=405 nm) from the peptidic substrate Ac-Asp-Glu-Val-Asp-pNA (20 μM) catalyzed by human caspase 3 (Sigma, 250 ng/mL) at pH 7.4 (18.6 mM HEPES, 1.9 mM EDTA, 0.09% CHAPS and 4.7 mM DTT).

Where [3] appears, read: Table 1, substituent on the cinnamoyl aromatic group, read-out: IC50 (μM), class symbol.
[4] abbreviates: Table 1, value in brackets, read-out: IC50.
[5] abbreviates: Table 2, influence of the cinnamoyl double bond, read-out: IC50 (μM), class symbol.
Where [6] appears, read: Table 2, value in brackets or words, read-out: IC50.
[7] abbreviates: Table 3, influence of the acylated moiety, read-out: IC50 (μM), class symbol.
Where [8] appears, read: Table 3, value in brackets, read-out: IC50.

human caspase 3, sequence (P42574 29-175): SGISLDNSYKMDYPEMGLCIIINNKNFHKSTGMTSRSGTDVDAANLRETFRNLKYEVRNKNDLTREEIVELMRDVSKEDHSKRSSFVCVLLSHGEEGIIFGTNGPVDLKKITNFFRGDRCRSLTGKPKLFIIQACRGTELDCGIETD
human caspase 3, sequence (P42574 176-277): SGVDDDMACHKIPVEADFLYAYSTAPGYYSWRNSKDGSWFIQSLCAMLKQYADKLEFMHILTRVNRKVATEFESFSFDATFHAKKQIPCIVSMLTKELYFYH

As to `O=C(/C=C/c1ccc([N+](=O)[O-])cc1)n1nnc2ccccc21` [Compound 15a, p-Nitrocinnamoyl benzotriazolyl amide], in assay [1], the “TGase inhibitory activity (in words)” value is “Inhibitory activity was observed”. For the same molecule, the IC50 was greater than 50 µM in assay [1] (setting [3]); 74 µM in assay [1] (setting [4]); greater than 50 µM in assay [1] (setting [5]); 74 µM in assay [1] (setting [6]); greater than 50 µM in assay [1] (setting [7]). Moreover, the “inhibition of TG2-mediated silencing of cytC promoter” value in assay [2] is listed as “complete inhibition”.
For `O=C(Nc1ccc(C=CC(=O)n2nnc3ccccc32)cc1)OCC1c2ccccc2-c2ccccc21` [Compound 15p, p-(9-Fluorenylmethoxycarbonylamino)cinnamoyl benzotriazolyl amide], the results for the IC50 in assay [1] (setting [3]) and in assay [1] (setting [4]) were 20 to 50 µM and 25 µM, respectively.
In the case of `COC(=O)c1ccc(/C=C/C(=O)n2nnc3ccccc32)cc1` [Compound 15q, p-(Methoxycarbonyl)cinnamoyl benzotriazolyl amide], the IC50 was 20 to 50 µM in assay [1] (setting [3]) and 27 µM in assay [1] (setting [4]).
Regarding `O=C(C=Cc1ccc([N+](=O)[O-])cc1)On1nnc2cccnc21` [Compound 16a, p-Nitrocinnamoyl oxyazabenzotriazolyl amide], the “TGase inhibitory activity (in words)” value in assay [1] is reported as “Inhibitory activity was observed”. Moreover, the IC50 in assay [1] (setting [7]) was in the range of 20 to 50 µM.
With `O=C(/C=C/c1ccc([N+](=O)[O-])cc1)OCc1ccccc1` [Compound 19a, p-Nitrocinnamoyl benzyl ester], the “TGase inhibitory activity (in words)” value in assay [1] is “little inhibitory activity”. Also, the IC50 in assay [1] (setting [7]) is greater than 50 µM.
Consider `CC(C)(C)OC(=O)/C=C/c1ccc([N+](=O)[O-])cc1` [Compound 20a, p-Nitrocinnamoyl t-butyl ester], for which, in assay [1], the “TGase inhibitory activity (in words)” value is listed as “little inhibitory activity”. Moreover, the IC50 in assay [1] (setting [7]) is greater than 50 µM.
On to `O=C(/C=C/c1ccc([N+](=O)[O-])cc1)Nc1ccccc1` [Compound 22a, p-Nitrocinnamoyl phenyl amide], for which the IC50 in assay [1] (setting [7]) is greater than 50 µM.
Take `O=C(/C=C/c1ccc([N+](=O)[O-])cc1)Nc1cccc2ccccc12` [Compound 23a, p-Nitrocinnamoyl naphtalenyl amide]: the figures for the IC50 in assay [1] (setting [7]) and in assay [1] (setting [8]) were greater than 50 µM and greater than 200 µM, respectively.
In the case of `O=C(/C=C/c1ccc([N+](=O)[O-])cc1)N1CCCCC1` [Compound 24a, p-Nitrocinnamoyl piperidinyl amide], the IC50 in assay [1] was greater than 50 µM.
Take `O=C(/C=C/c1ccc([N+](=O)[O-])cc1)N1CCc2ccccc21` [Compound 25a, p-Nitrocinnamoyl indolinyl amide]: the IC50 in assay [1] (setting [7]) is greater than 50 µM.
For `O=C(C=Cc1ccc([N+](=O)[O-])cc1)N(Cc1ccccc1)Cc1ccccc1` [Compound 26a, p-Nitrocinnamoyl dibenzyl amide], the IC50 in assay [1] (setting [7]) is 20 to 50 µM; in assay [1] (setting [8]), 57 µM; in assay [1] (read-out: IC50), 57 µM.
Consider `CN(Cc1ccccc1)C(=O)/C=C/c1ccc([N+](=O)[O-])cc1` [Compound 27a, p-Nitrocinnamoyl methylbenzyl amide], for which the IC50 in assay [1] (setting [7]) was greater than 50 µM.
On human caspase 3 (at 6 μM), `O=C(/C=C/c1ccc([N+](=O)[O-])cc1)c1cc2ccccc2oc1=O` [Compound 28a, 3-((E)-3-(4-Nitrophenyl)acryloyl)-2H-chromen-2-one] displayed an inhibition at 6 µM of 28%. Also, the “effect on caspase 3 activity” value on human caspase 3 (at concentrations approaching the limits of solubility) is “slight inhibitory activity”. Also, the figures for the IC50 in assay [1] (setting [7]), in assay [1] (setting [8]) and in assay [1] (read-out: IC50) were 20 to 50 µM, 48 µM and 48 µM, respectively.
Turning to `O=C(/C=C/c1ccc([N+](=O)[O-])cc1)N1CCCOC1` [Compound 29a, (E)-3-(4-Nitrophenyl)-1-(1,3-oxazinan-3-yl)prop-2-en-1-one], in assay [1], the “TGase inhibitory activity (in words)” value was “little inhibitory potency”. Further, the IC50 in assay [1] (setting [7]) was greater than 50 µM; in assay [1] (setting [8]), greater than 200 µM.
For `O=C(/C=C/c1ccc([N+](=O)[O-])cc1)c1cccnc1` [Compound 30a, (E)-3-(4-nitrophenyl)-1-(pyridin-3-yl)prop-2-en-1-one], the “TGase inhibitory activity (in words)” value in assay [1] was “as effective as the benzotriazolyl amide inhibitors”. For the same molecule, the IC50 in assay [1] (setting [3]) was 20 to 50 µM; in assay [1] (setting [4]), 21 µM.
With `Nc1ccc(/C=C/C(=O)c2cccnc2)cc1` [Compound 30r, (E)-3-(4-aminophenyl)-1-(pyridin-3-yl)prop-2-en-1-one], the “TGase inhibitory activity (in words)” value in assay [1] was “as effective as the benzotriazolyl amide inhibitors”. The IC50 is greater than 50 µM in assay [1] (setting [3]) and 148 µM in assay [1] (setting [4]). Moreover, the “loss of potency (fold)” value in assay [1] (relative to p-nitro azachalcone 30a) was 5 fold.
Regarding `CC(=O)Nc1ccc(/C=C/C(=O)c2cccnc2)cc1` [Compound 30t, (E)-3-(4-acetylaminophenyl)-1-(pyridin-3-yl)prop-2-en-1-one], in assay [1], the “TGase inhibitory activity (in words)” value is listed as “as effective as the benzotriazolyl amide inhibitors”. In addition, the 50% inhibitory concentration (IC50) in assay [1] (setting [3]) is 20 to 50 µM; in assay [1] (setting [4]), 28 µM.
As for `O=C(/C=C/c1ccc([N+](=O)[O-])cc1)c1ccccc1` [Compound 31a, reference compound], the “TGase inhibitory activity (in words)” value in assay [1] is given as “lack of activity”.
In the case of `O=C(OCc1ccc([N+](=O)[O-])cc1)n1nnc2ccccc21` [Compound 32a, p-Nitrobenzyloxycarbonylbenzotriazole], in assay [1], the “TGase inhibitory activity (in words)” value is “significant loss of activity”. Further, the IC50 in assay [1] (setting [5]) was greater than 50 µM; in assay [1] (setting [6]), greater than 200 µM.
In the case of `O=C(CCc1ccc([N+](=O)[O-])cc1)n1nnc2ccccc21` [Compound 33a, p-Nitrohydrocinnamoyl benzotriazolylamide], in assay [1], the “TGase inhibitory activity (in words)” value was “significant loss of activity”. Also, the IC50 was greater than 50 µM in assay [1] (setting [5]) and greater than 200 µM in assay [1] (setting [6]).
With `O=C(c1ccc([N+](=O)[O-])cc1)n1nnc2ccccc21` [Compound 34a, p-Nitrobenzoyl benzotriazolyl amide], the “IC50 (μM)” value in assay [1] (Table 2, value in brackets or words) is on record as “irreversible”. Further, in assay [1] (versus acyl-donor substrate), the mode of inhibition entry is listed as “irreversible inhibitor”.
`O=C(/C=C/C=C/c1ccc([N+](=O)[O-])cc1)n1nnc2ccccc21` [Compound 37a, (2E,4E)-5-(4-Nitrophenyl)penta-2-4-dienoyl benzotriazolyl amide]: in assay [1], the “TGase inhibitory activity (in words)” value is “Neither of these two extended conjugated compounds showed significant inhibition”. The IC50 in assay [1] (setting [5]) is greater than 50 µM; in assay [1] (setting [6]), greater than 200 µM.
With `O=C(/C=C/C=C/c1ccc([N+](=O)[O-])cc1)c1cccnc1` [Compound 38a, (2E,4E)-5-(4-Nitrophenyl)-1-(pyridine-3-yl)penta-2,4-dien-1-one], the “TGase inhibitory activity (in words)” value in assay [1] is listed as “Neither of these two extended conjugated compounds showed significant inhibition”.

Usually IC50 stands for the point on the concentration scale where inhibition reaches its midpoint. One may read the inhibition as the relative decrease from the control value, in per cent. A higher inhibition goes with strong suppression.
